According to patent publication US20200397808A1, “TREATMENT OF STEROID-RESISTANT DISEASE USING AN ANTHOCYANIN AND A CORTICOSTEROID” (THE CLEVELAND CLINIC FOUNDATION, priority 2017, published 2020):

Assays:
[1] = tested on: Th17-induced neutrophilic airway inflammation; assay: Th17 cell-mediated neutrophilic asthma model; format: in vivo, C57BL/6 mice; conditions: C3G alone, 200 μg i.p./100 μg i.n per mouse
Experimental: FIGS. 3A and 3B provide graphs showing C3G attenuates neutrophilic airway inflammation in a Th17-induced asthma model. A. HDM/CFA-induced neutrophilic asthma in 8-week female C57BL/6 mice (n=5 per group). B. Shown are total and differential cell counts in BAL cell count. HDM, house dust mite. Treatment groups: Control (DMSO); Low DEX (0.3 mg/kg BW, i.p.); C3G (200 μg i.p./100 μg i.n per mouse); Low DEX/C3G. DEX and C3G were delivered to mice 1 h before HDM challenges. Mice were sacrificed after the last HDM challenge.
C3G attenuates neutrophilic airway inflammation in a Th17-induced asthma model. To further confirm the synergistic effect of DEX/C3G in IL-17A-driven asthma, the efficacy of C3G was tested in a TH17 cell-mediated neutrophilic asthma model (FIG. 3).

[2] = biological target: T1, IL-17A and IL-17ARA (IL-17A receptor subunit) interaction (Homo sapiens, UniProt Q96F46); assay: IL-17A binding to IL-17ARA inhibition; conditions: read-out: IC50, inhibitory activity for IL-17A binding to IL-17ARA
T1 sequence (Q96F46 33-320 limits assumed): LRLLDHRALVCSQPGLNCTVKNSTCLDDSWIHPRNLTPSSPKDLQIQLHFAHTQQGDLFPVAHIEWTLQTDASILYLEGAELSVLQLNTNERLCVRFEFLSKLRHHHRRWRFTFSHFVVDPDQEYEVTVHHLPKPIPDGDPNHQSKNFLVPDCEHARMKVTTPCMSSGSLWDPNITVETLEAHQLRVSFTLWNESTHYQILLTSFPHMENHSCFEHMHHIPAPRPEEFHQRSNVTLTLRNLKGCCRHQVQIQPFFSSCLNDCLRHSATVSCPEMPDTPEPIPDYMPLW

[3] = tested on: HDM-induced neutrophilic airway inflammation; assay: HDM/CFA-induced acute neutrophilic steroid-resistant severe asthma model; format: in vivo, C57BL/6 mice; design: airway inflammation (BAL cell count, inflammatory gene expression in the lung): dose or concentration left out as unconfirmed
Experimental: FIGS. 1A and 1B provide graphs showing C3G attenuates neutrophilic airway inflammation in a HDM-induced acute asthma model. A. HDM/CFA-induced neutrophilic asthma in 8-week female C57BL/6 mice (n=8 per group). B. Shown are total and differential cell counts in BAL cell count. HDM, house dust mite. […] DEX and C3G were delivered to mice 24 h before HDM sensitization and 1 h before HDM challenge. Mice were sacrificed after HDM challenge. i.p., intraperitoneally; i.n. intranasally.
FIGS. 2A and 2B provide graphs showing Oral C3G attenuates neutrophilic airway inflammation in a HDM-induced acute asthma model. A. HDM/CFA-induced neutrophilic asthma in 8-week female C57BL/6 mice (n=5 per group). B. Shown are total and differential cell counts in BAL cell count. HDM, house dust mite. Treatment groups: Control (DMSO); Low DEX (0.3 mg/kg BW, i.p.); Low DEX+10 mg C3G (per mouse); Low DEX+20 mg C3G (per mouse); DEX and C3G were delivered to mice 24 h before HDM sensitization and 1 h before HDM challenge. Mice were sacrificed after HDM challenge.
C3G attenuates neutrophilic airway inflammation in a HDM-induced acute asthma model. House dust mite (HDM), a natural allergen to which asthmatics are often sensitized, can induce neutrophilic airway inflammation, which is often associated with steroid-resistant severe asthma. The inventors have established an HDM/CFA-induced neutrophilic severe asthma model. The ability of C3G in combination with low-dose DEX (low DEX) was evaluated in alleviating neutrophilic airway inflammation in a HDM-induced steroid-resistant severe asthma model. Eight-week WT C57BL/6 female mice were sensitized subcutaneously (s.c.) with HDM (100 μg per mouse) in Complete Freund's Adjuvant (CFA) on day 0 and subsequently challenged (i.n.) with HDM (100 μg per mouse) on day 14. BAL cell counting and tissue collection were performed after 24 h of last HDM challenge. […]

How did the “neutrophilic airway inflammation (BAL cell count)” value [1] turn out when `OC[C@H]1O[C@@H](Oc2cc3c(O)cc(O)cc3[o+]c2-c2ccc(O)c(O)c2)[C@H](O)[C@@H](O)[C@@H]1O` [C3G, Cyanidin-3-glucoside] was run?
Its value is “alleviated the inflammation dramatically”.

And the IC50 [2]?
Its IC50 is 6.88 µM.

What about the “airway inflammation (BAL cell count, inflammatory gene expression in the lung)” value ([3]; C3G alone) of the same molecule?
Its value is “reduced to some degree”.

And the “airway inflammation (BAL cell count)” value ([3]; oral C3G 20 mg/mouse in the presence of low DEX, versus 10 mg/mouse)?
The value was “did not improve the efficacy further”.

What about the “airway inflammation (BAL cell count)” value ([3]; oral C3G by gavage 10 mg/mouse in the presence of low DEX) of the same molecule?
Its value is “able to inhibit airway inflammation”.
